pIC50: −log10 of the molar value.
Legend:
human TLR8 = human TLR8 (Homo sapiens (Human), UniProt Q9NR97); assay: TLR8 inhibition reporter assay (HEK-Blue SEAP); details: read-out: TLR8 IC50; HEK-Blue cells overexpressing human TLR8, SEAP reporter, R848 15.9 μM;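 note: SEAP driven by IFN-β minimal promoter carrying NF-κB and AP-1 sites, compounds dosed 0.05 nM to 50 µM for 22 h, inhibition scaled between agonist-plus-DMSO and reference-inhibitor wells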
human TLR7 = human TLR7 (Homo sapiens (Human), UniProt Q9NYK1); assay: TLR7 inhibition reporter assay (HEK-Blue SEAP); assay type: cell-based; details: HEK-Blue cells overexpressing human TLR7, SEAP reporter, gardiquimod 7.5 μM
human TLR9 = human TLR9 (Homo sapiens (Human), UniProt Q9NR96); assay: TLR9 inhibition reporter assay (HEK-Blue SEAP); details: read-out: TLR9 IC50; HEK-Blue cells overexpressing human TLR9, SEAP reporter, ODN2006 5 nM;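 note: SEAP driven by an IFN-β minimal promoter with NF-κB and AP-1 sites, read after 22 h, compounds dosed 0.05 nM–50 µM, inhibition scaled between agonist plus DMSO and reference-inhibitor wells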
human TLR9, sequence (Q9NR96 26-1032): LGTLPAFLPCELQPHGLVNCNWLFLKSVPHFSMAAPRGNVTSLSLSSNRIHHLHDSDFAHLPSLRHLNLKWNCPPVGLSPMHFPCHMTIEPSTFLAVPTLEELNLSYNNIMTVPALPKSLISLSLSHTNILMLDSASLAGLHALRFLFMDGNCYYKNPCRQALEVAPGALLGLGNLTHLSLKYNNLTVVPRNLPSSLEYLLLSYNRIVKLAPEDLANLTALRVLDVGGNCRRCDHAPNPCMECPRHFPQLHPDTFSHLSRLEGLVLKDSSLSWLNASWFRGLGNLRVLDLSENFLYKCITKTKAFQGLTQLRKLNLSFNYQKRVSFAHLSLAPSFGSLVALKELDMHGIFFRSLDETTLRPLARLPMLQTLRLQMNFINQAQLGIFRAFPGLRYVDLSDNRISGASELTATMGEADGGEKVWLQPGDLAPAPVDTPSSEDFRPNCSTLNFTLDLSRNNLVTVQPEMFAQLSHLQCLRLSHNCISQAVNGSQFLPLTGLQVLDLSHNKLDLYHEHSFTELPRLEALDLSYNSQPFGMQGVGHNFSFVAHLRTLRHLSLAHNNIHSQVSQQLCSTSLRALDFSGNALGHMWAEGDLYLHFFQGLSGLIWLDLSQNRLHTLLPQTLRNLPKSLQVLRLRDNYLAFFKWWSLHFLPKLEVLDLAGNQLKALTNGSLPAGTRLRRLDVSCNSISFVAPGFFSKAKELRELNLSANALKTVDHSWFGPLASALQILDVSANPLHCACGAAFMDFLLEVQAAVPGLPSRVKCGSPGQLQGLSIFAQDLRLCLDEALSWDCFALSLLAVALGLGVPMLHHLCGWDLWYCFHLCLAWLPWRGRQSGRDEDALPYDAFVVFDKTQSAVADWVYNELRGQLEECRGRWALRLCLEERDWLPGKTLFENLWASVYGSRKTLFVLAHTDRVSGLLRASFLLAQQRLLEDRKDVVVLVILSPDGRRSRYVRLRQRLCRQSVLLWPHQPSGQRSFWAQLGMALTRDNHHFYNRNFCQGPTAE

human TLR8, sequence (Q9NR97 27-1041): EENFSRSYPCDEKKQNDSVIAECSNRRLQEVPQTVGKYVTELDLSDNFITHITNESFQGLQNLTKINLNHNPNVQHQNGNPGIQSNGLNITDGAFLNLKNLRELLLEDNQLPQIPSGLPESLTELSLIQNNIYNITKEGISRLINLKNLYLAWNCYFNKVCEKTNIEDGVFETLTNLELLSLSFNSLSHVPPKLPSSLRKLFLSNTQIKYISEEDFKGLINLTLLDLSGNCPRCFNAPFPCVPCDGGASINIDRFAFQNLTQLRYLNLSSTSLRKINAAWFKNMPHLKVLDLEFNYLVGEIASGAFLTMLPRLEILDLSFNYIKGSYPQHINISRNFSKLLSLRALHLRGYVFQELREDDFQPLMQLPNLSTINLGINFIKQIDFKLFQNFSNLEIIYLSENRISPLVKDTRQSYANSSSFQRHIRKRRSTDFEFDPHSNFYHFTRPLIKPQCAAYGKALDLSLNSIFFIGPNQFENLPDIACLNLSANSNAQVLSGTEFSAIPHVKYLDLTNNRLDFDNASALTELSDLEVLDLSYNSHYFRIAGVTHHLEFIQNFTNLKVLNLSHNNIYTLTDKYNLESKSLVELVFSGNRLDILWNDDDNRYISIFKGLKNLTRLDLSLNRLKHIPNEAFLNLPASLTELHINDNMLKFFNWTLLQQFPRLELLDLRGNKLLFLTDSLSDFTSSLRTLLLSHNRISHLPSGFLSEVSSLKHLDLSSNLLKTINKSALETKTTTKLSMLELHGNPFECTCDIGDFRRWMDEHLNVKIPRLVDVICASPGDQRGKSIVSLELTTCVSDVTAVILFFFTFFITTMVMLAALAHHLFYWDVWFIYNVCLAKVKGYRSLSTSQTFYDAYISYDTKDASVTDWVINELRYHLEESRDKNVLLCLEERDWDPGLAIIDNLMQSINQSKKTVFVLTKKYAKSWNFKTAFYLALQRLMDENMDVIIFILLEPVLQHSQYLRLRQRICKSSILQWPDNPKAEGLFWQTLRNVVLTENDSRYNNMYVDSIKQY
human TLR7, sequence (Q9NYK1 27-1049): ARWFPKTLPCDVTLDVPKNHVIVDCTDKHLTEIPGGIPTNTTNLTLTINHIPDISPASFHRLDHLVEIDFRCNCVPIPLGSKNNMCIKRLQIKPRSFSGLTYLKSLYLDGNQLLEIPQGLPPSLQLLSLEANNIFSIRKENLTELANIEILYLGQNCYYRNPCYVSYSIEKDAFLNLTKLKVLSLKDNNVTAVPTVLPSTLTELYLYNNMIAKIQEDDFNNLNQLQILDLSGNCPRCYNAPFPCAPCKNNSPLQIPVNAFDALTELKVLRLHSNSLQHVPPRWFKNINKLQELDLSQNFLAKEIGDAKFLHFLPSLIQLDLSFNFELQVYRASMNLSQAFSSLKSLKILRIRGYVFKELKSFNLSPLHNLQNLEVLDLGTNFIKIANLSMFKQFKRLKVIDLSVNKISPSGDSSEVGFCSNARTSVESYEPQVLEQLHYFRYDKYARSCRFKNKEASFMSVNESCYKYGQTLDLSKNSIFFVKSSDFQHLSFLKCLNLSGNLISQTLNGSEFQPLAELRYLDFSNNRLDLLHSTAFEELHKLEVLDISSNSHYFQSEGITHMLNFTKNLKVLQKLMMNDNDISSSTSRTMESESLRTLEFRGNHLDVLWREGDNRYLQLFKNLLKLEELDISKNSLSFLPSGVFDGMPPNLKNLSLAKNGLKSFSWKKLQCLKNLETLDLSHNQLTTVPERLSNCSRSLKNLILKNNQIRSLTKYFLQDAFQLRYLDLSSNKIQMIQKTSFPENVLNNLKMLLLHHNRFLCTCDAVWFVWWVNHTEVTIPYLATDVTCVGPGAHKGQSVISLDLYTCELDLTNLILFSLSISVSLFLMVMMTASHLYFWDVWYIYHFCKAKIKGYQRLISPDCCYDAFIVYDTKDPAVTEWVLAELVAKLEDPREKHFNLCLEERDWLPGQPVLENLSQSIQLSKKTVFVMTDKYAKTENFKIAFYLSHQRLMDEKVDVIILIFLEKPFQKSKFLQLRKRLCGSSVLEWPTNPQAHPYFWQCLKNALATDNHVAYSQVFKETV

| Structure (SMILES) | pIC50 (human TLR8) | pIC50 (human TLR7) | pIC50 (human TLR9) |
| --- | --- | --- | --- |
| COc1cc(-c2[nH]c3ccc(CCN4CCCCC4)nc3c2C(C)C)cn2ncnc12 [Example 682] | 7.62 | 7.80 | 5.98 |
| CC(C)c1c(-c2cn(C)c3ncccc23)[nH]c2ccc(CCC3CN(CC(=O)N(C)C)C3)nc12 [Example 683] | 7.89 | 7.92 | 6.49 |
| CC(C)c1c(-c2cn(C)c3ncccc23)[nH]c2ccc(CCC3CN(CCS(C)(=O)=O)C3)nc12 [Example 684] | 7.89 | 7.85 | 6.44 |
| Cc1c(-c2[nH]c3ccc(CCC4CN(C(=O)CN(C)C)C4)nc3c2C(C)C)cn2ncnc2c1C [Example 685] | 7.41 | 7.49 | 5.80 |
| Cc1c(-c2[nH]c3ccc(CCC4CN(C5COC5)C4)nc3c2C(C)C)cn2ncnc2c1C [Example 686] | < 5.51 | < 5.51 | < 4.30 |
| Cc1c(-c2[nH]c3ccc(CCC4CN(C5COC5)C4)nc3c2C(C)C)cn2ncnc2c1C [Example 687] | 7.80 | 7.41 | 5.24 |
| COc1cc(-c2[nH]c3ccc(CCC4CN(CC(=O)N(C)C)C4)nc3c2C(C)C)cn2ncnc12 [Example 689] | 7.38 | 7.96 | 6.36 |
| CC(C)c1c(-c2cn(C)c3ncccc23)[nH]c2ccc(CCC3CNC3)nc12 [Example 690] | 7.51 | 7.82 | 6.54 |
| CC(C)c1c(-c2cn(C)c3ncccc23)[nH]c2ccc(CCC3CN(CC4(C)COC4)C3)nc12 [Example 691] | 8.04 | 7.96 | 6.50 |
| Cc1c(-c2[nH]c3ccc(CCC4CNC4)nc3c2C(C)C)cn2ncnc2c1C [Example 692] | 7.24 | 7.37 | 5.82 |
| COc1cc(-c2[nH]c3ccc(CCC4CN(CC(C)(C)O)C4)nc3c2C(C)C)cn2ncnc12 [Example 693] | 7.82 | 8.19 | 6.36 |
| CC(C)c1c(-c2cn(C)c3ncccc23)[nH]c2ccc(CCC3CN(C4COC4)C3)nc12 [Example 694] | 5.55 | 5.64 | 4.84 |
| Cc1c(-c2[nH]c3ccc(CCC4CN(CCS(C)(=O)=O)C4)nc3c2C(C)C)cn2ncnc2c1C [Example 695] | 7.70 | 7.38 | 5.40 |
| Cc1c(-c2[nH]c3ccc(CCC4CN(CC(=O)N(C)C)C4)nc3c2C(C)C)cn2ncnc2c1C [Example 696] | 7.44 | 7.12 | 5.88 |
| COc1cc(-c2[nH]c3ccc(CCC4CNC4)nc3c2C(C)C)cn2ncnc12 [Example 697] | 6.95 | 7.70 | 6.04 |
| COc1cc(-c2[nH]c3ccc(CCC4CN(CCS(C)(=O)=O)C4)nc3c2C(C)C)cn2ncnc12 [Example 698] | 7.55 | 7.92 | 6.00 |
| COc1cc(-c2[nH]c3ccc(CCC4CN(C(=O)CN(C)C)C4)nc3c2C(C)C)cn2ncnc12 [Example 699] | 7.34 | 7.92 | 6.37 |
| COc1cc(-c2[nH]c3ccc(CCC4CN(C5COC5)C4)nc3c2C(C)C)cn2ncnc12 [Example 700] | 7.37 | 7.59 | 5.63 |
| Cc1c(-c2[nH]c3ccc(CCC4CN(CC(C)(C)O)C4)nc3c2C(C)C)cn2ncnc2c1C [Example 701] | 7.82 | 7.31 | 5.76 |
| Cc1c(-c2[nH]c3ccc(CCC4CN(CC5(C)COC5)C4)nc3c2C(C)C)cn2ncnc2c1C [Example 702] | 7.85 | 7.39 | 5.65 |
| CC(C)c1c(-c2cn(C)c3ncccc23)[nH]c2ccc(CCC3CN(C(=O)CN(C)C)C3)nc12 [Example 703] | 7.80 | 8.05 | 6.49 |
| CC(C)c1c(-c2cn(C)c3ncccc23)[nH]c2ccc(CCC3CN(Cc4c[nH]nn4)C3)nc12 [Example 704] | 7.89 | 7.96 | 6.78 |
| Cc1c(-c2[nH]c3ccc(CCC4CN(Cc5c[nH]nn5)C4)nc3c2C(C)C)cn2ncnc2c1C [Example 705] | 7.82 | 7.74 | 6.18 |
| COc1cc(-c2[nH]c3ccc(CCC4CN(CC5(C)COC5)C4)nc3c2C(C)C)cn2ncnc12 [Example 706] | 7.74 | 8.07 | 5.99 |
| COc1cc(-c2[nH]c3ccc(C4CCC(NC5CCOCC5)C4)nc3c2C(C)C)cn2ncnc12 (stereo not drawn) [Example 707] | 8.28 | 8.82 | 5.85 |
| COc1cc(-c2[nH]c3ccc(C4CCC(N(CC(N)=O)CC(N)=O)C4)nc3c2C(C)C)cn2ncnc12 (stereo not drawn) [Example 708] | 6.55 | 7.92 | < 4.30 |

| Structure (SMILES) | pIC50 (human TLR8) | pIC50 (human TLR7) | pIC50 (human TLR9) |
| --- | --- | --- | --- |
| COc1cc(-c2[nH]c3ccc(C4CCC(NCCS(C)(=O)=O)C4)nc3c2C(C)C)cn2ncnc12 (stereo not drawn) [Example 709] | < 5.51 | 5.63 | < 4.30 |
| COc1cc(-c2[nH]c3ccc(C4CCC(NC5CCOCC5)C4)nc3c2C(C)C)cn2ncnc12 (stereo not drawn) [Example 710] | 8.49 | 8.70 | 5.33 |
| COc1cc(-c2[nH]c3ccc(C4CCC(NCC5(C)COC5)C4)nc3c2C(C)C)cn2ncnc12 (stereo not drawn) [Example 711] | 8.54 | 8.70 | 5.77 |
| COc1cc(-c2[nH]c3ccc(C4CCC(NC(=O)CN(C)C)C4)nc3c2C(C)C)cn2ncnc12 (stereo not drawn) [Example 712] | 7.96 | 8.72 | 5.50 |
| COc1cc(-c2[nH]c3ccc(C4CCC(N(CC#N)CC#N)C4)nc3c2C(C)C)cn2ncnc12 (stereo not drawn) [Example 713] | 7.55 | 8.21 | 5.31 |
| COc1cc(-c2[nH]c3ccc(C4CCC(NC(=O)C5CCN(C)CC5)C4)nc3c2C(C)C)cn2ncnc12 (stereo not drawn) [Example 714] | 8.03 | 8.74 | 6.69 |
| COc1cc(-c2[nH]c3ccc(C4CCC(NC5COC5)C4)nc3c2C(C)C)cn2ncnc12 (stereo not drawn) [Example 715] | 7.96 | 8.77 | 5.06 |
| COc1cc(-c2[nH]c3ccc(C4CCC(NCC#N)C4)nc3c2C(C)C)cn2ncnc12 (stereo not drawn) [Example 716] | 8.17 | 9.13 | 5.60 |
| COc1cc(-c2[nH]c3ccc(C4CCC(N(CCS(C)(=O)=O)CCS(C)(=O)=O)C4)nc3c2C(C)C)cn2ncnc12 (stereo not drawn) [Example 717] | 5.96 | 5.97 | 5.60 |
| COc1cc(-c2[nH]c3ccc(C4CCC(NCC5(C)COC5)C4)nc3c2C(C)C)cn2ncnc12 (stereo not drawn) [Example 718] | 8.44 | 8.02 | 5.21 |
| CNC(=O)CNC1CCC(c2ccc3[nH]c(-c4cc(OC)c5ncnn5c4)c(C(C)C)c3n2)C1 (stereo not drawn) [Example 719] | 8.15 | 8.55 | 5.59 |
| COc1cc(-c2[nH]c3ccc(C4CCC(N(CC(N)=O)CC(N)=O)C4)nc3c2C(C)C)cn2ncnc12 (stereo not drawn) [Example 720] | 7.03 | 7.89 | 4.69 |
| COc1cc(-c2[nH]c3ccc(C4CCC(NC5CCOCC5)C4)nc3c2C(C)C)cn2ncnc12 (stereo not drawn) [Example 721] | 9.28 | 9.39 | 6.01 |
| COc1cc(-c2[nH]c3ccc(C4CCC(N(CC(=O)N(C)C)CC(=O)N(C)C)C4)nc3c2C(C)C)cn2ncnc12 (stereo not drawn) [Example 722] | 7.34 | 8.19 | 4.73 |
| COc1cc(-c2[nH]c3ccc(C4CCC(NC(C)C)C4)nc3c2C(C)C)cn2ncnc12 (stereo not drawn) [Example 723] | 8.62 | 9.00 | 5.36 |
| COc1cc(-c2[nH]c3ccc(C4CCC(NC(C)C5CC5)C4)nc3c2C(C)C)cn2ncnc12 (stereo not drawn) [Example 724] | 8.70 | 9.20 | 5.66 |
| CNC(=O)CNC1CCC(c2ccc3[nH]c(-c4cc(OC)c5ncnn5c4)c(C(C)C)c3n2)C1 (stereo not drawn) [Example 725] | 8.72 | 9.21 | 5.69 |
| COc1cc(-c2[nH]c3ccc(C4CCC(N(CCS(C)(=O)=O)CCS(C)(=O)=O)C4)nc3c2C(C)C)cn2ncnc12 (stereo not drawn) [Example 726] | 5.68 | 5.87 | 4.40 |
| COc1cc(-c2[nH]c3ccc(C4CCC(NC5CCOCC5)C4)nc3c2C(C)C)cn2ncnc12 (stereo not drawn) [Example 727] | 8.49 | 8.44 | 5.47 |
| COc1cc(-c2[nH]c3ccc(C4CCC(NCC5(C)COC5)C4)nc3c2C(C)C)cn2ncnc12 (stereo not drawn) [Example 728] | 9.17 | 9.13 | 5.45 |
| COc1cc(-c2[nH]c3ccc(C4CCC(NC5CCOC(C)(C)C5)C4)nc3c2C(C)C)cn2ncnc12 (stereo not drawn) [Example 729] | 8.89 | 8.96 | 5.71 |
| COc1cc(-c2[nH]c3ccc(C4CCC(N(CC#N)CC#N)C4)nc3c2C(C)C)cn2ncnc12 (stereo not drawn) [Example 730] | 7.64 | 8.48 | 4.98 |
| COc1cc(-c2[nH]c3cc(C)c(C(=O)NC4CCN(C(C)C)CC4)nc3c2C(C)C)cn2ncnc12 [Example 731] | 7.82 | 8.34 | 5.79 |
| COc1cc(-c2[nH]c3cc(C)c(C(=O)N(C)CCN(C)C)nc3c2C(C)C)cn2ncnc12 [Example 732] | 7.15 | 8.00 | 5.32 |
| COc1cc(-c2[nH]c3cc(C)c(C(=O)N4CCN(C(C)=O)CC4)nc3c2C(C)C)cn2ncnc12 [Example 733] | 5.99 | 7.28 | < 4.30 |
| COc1cc(-c2[nH]c3cc(C)c(C(=O)N(C)CCC(F)(F)F)nc3c2C(C)C)cn2ncnc12 [Example 734] | 6.60 | 7.59 | < 4.30 |
